Data from US9636348B2, “6-substituted estradiol derivatives for use in remyelination of nerve axons” (Endece LLC, priority 2011, dated 2017).

What was measured:
[1] = tested on: Delta/notch-like EFG repeat (DNER); assay: Expression profiling (Agilent microarray) in tumor cell lines: DNER; assay type: cell-based, human; conditions: 24 hours, treated vs untreated, average of SKOV-3, A549 and Panc-1
Protocol: (§1) The study includes three human tumor cell lines: A549, Panc-1, and SK-OV-3. The lines are each grown in two flasks cultured to roughly 40% confluence. One of the flasks is treated by addition of compound to the culture media at a various concentrations, i.e. 10 μM, 20 μM 50 μM, 100 μM or 200 μM. The other, mock treated, flask is treated only with the vehicle used to solubilize and deliver the drug. RNA extracted from the pairs of treated and untreated samples is subjected to microarray analysis on Agilent Whole Human Genome Microarrays (G4112F). Each analysis reports the difference in abundance of messenger RNAs for each of the 41,000 specific mRNA detectors on the array. This direct comparison of the treated versus untreated samples for each cell line provides extremely sensitive detection of changes in mRNA abundance resulting from the drug treatment. As each cell line comparison is self-normalized, the results can be compared across the samples with high confidence.
(§2) Three human tumor cell lines, A549, Panc-1, and SK-OV-3, are each grown in two flasks cultured to roughly 40% confluence. One of the flasks is treated by addition of compound to the culture media at concentrations of 10 μM, 50 μM and 100 μM. The other, mock treated, flask is treated only with the vehicle used to solubilize and deliver the drug. All flasks are cultured for a further 24 hours, and then the cells are scraped free and washed in ice-cold PBS, then collected by centrifugation. The harvested cells are immediately frozen, and stored at −80° C. or colder.
(§3) Total RNA is prepared from the frozen tissue samples using Trizol-based cell lysis followed by 65° C. hot phenol extraction and RNeasy chromatography purification. The purified RNA samples are analyzed spectrophotometrically. The concentration of RNA is determined by measuring the absorbance at 260 nm (A260). Given an absorbance of 1 unit at 260 nm corresponds to […].
(§4) All RNAs are labeled using 1 microgram of RNA as input to an Agilent Low Input Labeling reaction.
(§5) Test RNA is labeled with Cy5 (650 nm emitter) and reference RNA is labeled with Cy3 (550 nm emitter) nucleotides. Labeling, hybridizations and subsequent washings are carried out on Agilent H1Av2 human expression chips. The resulting hybridized chips are scanned on an Agilent microarray scanner, and intensity information for each detector spot is extracted from the scanned image using Agilent feature extraction software. […]
(§6) After the ratios have been calculated for the normalized data, the various control and duplicate samples are analyzed to build a model of how reproducible the results are, and how this reproducibility is varies depending on signal strength and noise. […]

[2] = tested on: Oligodentrocyte lineage transcription factor 2 (OLIG2); assay: Expression profiling (Agilent microarray) in tumor cell lines: OLIG2; assay type: cell-based, human; conditions: 24 hours, treated vs untreated, average of SKOV-3, A549 and Panc-1
Protocol: as §1, §2, §3, §4, §5, §6

[3] = tested on: Myelin basic protein (variant 7) (MBP); assay: Expression profiling (Agilent microarray) in tumor cell lines: MBP; assay type: cell-based, human; conditions: 24 hours, treated vs untreated, average of SKOV-3, A549 and Panc-1
Protocol: as §1, §2, §3, §4, §5, §6

[4] = tested on: Myelin oligodentrocyte glycoprotein (variant alpha 4) (MOG); assay: Expression profiling (Agilent microarray) in tumor cell lines: MOG; assay type: cell-based, human; conditions: 24 hours, treated vs untreated, average of SKOV-3, A549 and Panc-1
Protocol: as §1, §2, §3, §4, §5, §6

[5] = tested on: Interleukin 23 receptor (IL23R); assay: Expression profiling (Agilent microarray) in tumor cell lines: IL23R; assay type: cell-based, human; conditions: 24 hours, treated vs untreated, average of SKOV-3, A549 and Panc-1
Protocol: as §1, §2, §3, §4, §5, §6

[6] = tested on: Transmembrane protein 108 (TMEM108); assay: Expression profiling (Agilent microarray) in tumor cell lines: TMEM108; assay type: cell-based, human; conditions: 24 hours, treated vs untreated, average of SKOV-3, A549 and Panc-1
Protocol: as §1, §2, §3, §4, §5, §6

[7] = tested on: Connexin (AF251047); assay: Expression profiling (Agilent microarray) in tumor cell lines: Connexin; assay type: cell-based, human; conditions: 24 hours, treated vs untreated, average of SKOV-3, A549 and Panc-1
Protocol: as §1, §2, §3, §4, §5, §6

[8] = tested on: Interleukin 20 receptor alpha (IL20RA); assay: Expression profiling (Agilent microarray) in tumor cell lines: IL20RA; assay type: cell-based, human; conditions: 24 hours, treated vs untreated, average of SKOV-3, A549 and Panc-1
Protocol: as §1, §2, §3, §4, §5, §6

[9] = tested on: Interleukin 28A (IL28A); assay: Expression profiling (Agilent microarray) in tumor cell lines: IL28A; assay type: cell-based, human; conditions: 24 hours, treated vs untreated, average of SKOV-3, A549 and Panc-1
Protocol: as §1, §2, §3, §4, §5, §6

[10] = tested on: genes in signaling pathways involved in proliferation and differentiation of OPCs; assay: Expression profiling in tumor cell lines: overall statement; assay type: cell-based, human; conditions: SKOV-3, A549 and Panc-1 cells, Table 1
Protocol: as §1
Three human tumor cell lines, A549, Panc-1, and SK-OV-3, are each grown in two flasks cultured to roughly 40% confluence. […]
as §6

[11] = tested on: oligodendrocyte precursor cells (OPCs); assay: Oligodendrocyte differentiation assay (PLP-EGFP reporter); assay type: cell-based, mouse; conditions: for Potency in OPC differentiation (in words): 4 days, FIGS. 1 and 3
Protocol: OPC cultures are prepared as described Pedraza, C. E. et al., Glia 56(12), 1339-52 (2008), incorporated herein by reference. Brains are removed from E14.5 C57Bl6/J (expressing PLP-EGFP) mice (Mallon, B. S. et al., J. Neurosci 22(3), 876-85 (2002)), cleaned and cortical hemispheres are isolated. Tissue is then triturated and seeded in T-25 cm^2 flasks at a density of 1 brain (2 cortical hemispheres) per flask. Neurospheres are passaged once after 3 days. Cells from passage 2 are used to prepare two 96-well plates for the primary screen. Following the initial 48 hour incubation in OPC media, the OPCs are treated with 10 μM of 17β-estradiol, compound 4 and compound 21, along with vehicle control DMSO and positive control compounds including […] ciliary neurotrophic factor (CNTF) and 1 μM extracellular-signal-regulated (ERK) kinase inhibitor (MEKi). Cells are treated for a total of 4 days and the media is replaced once at the 48 hour mark with fresh compounds. After the 4 day treatment the cells are fixed with 4% paraformaldehyde and stained with Hoechst 33342 to visualize nuclei. Cells are also stained with anti-GFAP (GFAP=glial fibrillary acidic protein) antibodies to identify astrocytes. Cells are blocked with 3% normal goat serum followed by an overnight incubation of anti-rabbit GFAP antibody (1:500). Cells are labeled with a 1:1000 concentration of secondary goat anti-rabbit Alexa 647 fluorochrome antibody. Images are acquired using the Cellomics Arrayscan VTI. Twenty fields at 10× magnification are acquired per well and the cells expressing EGFP (enhanced green gluorescent protein; mature oligodendrocytes) and GFAP (astrocytes) are evaluated by neuronal profiling algorithm.
The extent of oligodendrocyte maturation is measured by the level of the PLP-EGFP reporter signal, along with the extent of process formation (FIGS. 1-4; legend for FIGS. 1 and 3 are presented below in Table 2). Proteolipid protein (PLP) is used as a biomarker because it is known to be expressed in mature oligodendrocytes and is a component of the myelin sheath. […] Compared to DMSO and all other compounds tested, including CNTF, the extent of process formation is also greatest for compound 21 (FIGS. 2 and 4).

| Structure (SMILES) | Gene expression DNER ([1]; 50 μM) | Gene expression OLIG2 ([2]; 50 μM) | Gene expression MBP ([3]; 50 μM) | Gene expression MOG ([4]; 50 μM) | Gene expression IL23R ([5]; 50 μM) | Gene expression TMEM108 ([6]; 50 μM) | Gene expression Connexin AF251047 ([7]; 50 μM) | Gene expression IL20RA ([8]; 50 μM) | Gene expression IL28A ([9]; 50 μM) | Effect on genes in signaling pathways involved in proliferation and differentiation of OPCs [10] | Potency in OPC differentiation (in words) ([11]; 10 μM) | further results |
| --- | --- | --- | --- | --- | --- | --- | --- | --- | --- | --- | --- | --- |
| COC[C@@H]1C[C@@H]2[C@H](CC[C@]3(C)C(O)CC[C@@H]23)c2ccc(O)cc21 (stereo partly drawn) [compound 4, (6R,8R,9S,13S,14S)-6-(methoxymethyl)-13-methyl-7,8,9,11,12,13,14,15,16,17-decahydro-6H-cyclopenta[a]phenanthrene-3,17-diol] | 5.16 log2 | 4.98 log2 | 4.72 log2 | 3.99 log2 | 3.62 log2 | 3.59 log2 | 3.38 log2 | 3.17 log2 | 1.35 log2 | up-regulate | potent | Gene expression DNER ([1]; 100 μM): 5.51 log2; Gene expression OLIG2 ([2]; 100 μM): 4.59 log2; Gene expression MBP ([3]; 100 μM): 4.80 log2; Gene expression MOG ([4]; 100 μM): 4.28 log2; Gene expression IL23R ([5]; 100 μM): 4.86 log2; Gene expression TMEM108 ([6]; 100 μM): 3.62 log2; Gene expression Connexin AF251047 ([7]; 100 μM): 3.56 log2; Gene expression IL20RA ([8]; 100 μM): 3.38 log2; Gene expression IL28A ([9]; 100 μM): 1.96 log2 |
| COCCCCCC[C@@H]1C[C@@H]2[C@H](CC[C@]3(C)C(O)CC[C@@H]23)c2ccc(O)cc21 (stereo partly drawn) [compound 21, (6R,8R,9S,13S,14S)-6-(6-methoxyhexyl)-13-methyl-7,8,9,11,12,13,14,15,16,17-decahydro-6H-cyclopenta[a]phenanthrene-3,17-diol] | 4.79 log2 | 5.32 log2 | 5.04 log2 | 5.55 log2 | 5.46 log2 | 3.96 log2 | 3.08 log2 | 4.39 log2 | 2.59 log2 | up-regulate | potent | Gene expression DNER ([1]; 10 μM): 6.20 log2; Gene expression OLIG2 ([2]; 10 μM): 6.16 log2; Gene expression MBP ([3]; 10 μM): 6.07 log2; Gene expression MOG ([4]; 10 μM): 5.23 log2; Gene expression IL23R ([5]; 10 μM): 5.31 log2; Gene expression TMEM108 ([6]; 10 μM): 3.92 log2; Gene expression Connexin AF251047 ([7]; 10 μM): 2.74 log2; Gene expression IL20RA ([8]; 10 μM): 4.42 log2; Gene expression IL28A ([9]; 10 μM): 1.44 log2; Activity to differentiate oligodendrocytes compared to DMSO ([11]; 10 μM, 4 days (96 hours), mouse OPC culture, PLP-EGFP signal): 3 fold; Activity to differentiate oligodendrocytes compared to positive control CNTF ([11]; 10 μM, 4 days (96 hours), mouse OPC culture, CNTF 10 μM): 1.5 fold; Activity to differentiate oligodendrocytes compared to positive control MEKi ([11]; 10 μM, 4 days (96 hours), mouse OPC culture, MEKi 1 μM): 2.0 fold; Extent of process formation ([11]; compared to DMSO and all other compounds tested, including CNTF, FIGS. 2 and 4): greatest |
